Legend:
B. subtilis 168 = assay: Bliss interaction score (quartile over a dose matrix) (fitness difference); higher = more antagonism (negative = synergy)
In short: (§1)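 Fitness was OD595 at entry into stationary phase divided by the plate's robust no-drug mean and capped at 1; single-drug fitness was inferred from combination data. The Bliss score is observed minus expected (product) fitness, summarised by quartiles over technical, biological and donor/recipient replicates.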

S. aureus Newman = assay: as above
In short: as §1

S. pneumoniae D39V [1] = assay: as above
In short: as §1

S. aureus DSM 20231 = assay: as above
In short: as §1

S. pneumoniae D39V [2] = assay: fitness (endpoint OD595 vs no drug) (fraction); higher = more growth
In short: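 Plates with 384 wells were inoculated at OD595 0.01 using 30 µl of TSB, LB Lennox or CY, or 55 µl for S. pneumoniae. Incubation was at 37 °C, with OD595 measured every 30 min for 14 h. Fitness is the stationary-phase transition optical density over the robust mean of no-drug control wells, after first-reading background subtraction; it is capped at 1.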
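For Bliss interaction score (quartile over a dose matrix) in this document: first quartile when negative (synergy) and third quartile when positive (antagonism).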

CC[C@H]1OC(=O)[C@H](C)[C@@H](O[C@H]2C[C@@](C)(OC)[C@@H](O)[C@H](C)O2)[C@H](C)[C@@H](O[C@@H]2O[C@H](C)C[C@H](N(C)C)[C@H]2O)[C@](C)(OC)C[C@@H](C)C(=O)[C@H](C)[C@@H](O)[C@]1(C)O [Clarithromycin] + C[C@H]1COc2c(N3CCN(C)CC3)c(F)cc3c(=O)c(C(=O)O)cn1c23 [Levofloxacin]
Settings | Bliss interaction score
B. subtilis 168 | 0.0707
S. aureus DSM 20231 | 0.0901
S. aureus Newman | 0.0872
S. pneumoniae D39V [1] | -0.0537

fitness, S. pneumoniae D39V [2], one replicate
Settings | first compound 0.007812 µg/mL | first compound 0.01562 µg/mL | first compound 0.03125 µg/mL
partner 0.2 µg/mL | 0.782 | 0.811 | 0.599
partner 0.4 µg/mL | 0.646 | 0.726 | 0.533
partner 0.8 µg/mL | 0.257 | 0.316 | 0.244

S. pneumoniae D39V [2]
Settings | fitness
first compound 0.0625 µg/mL, partner 0.1725 µg/mL | 0.701
first compound 0.0625 µg/mL, partner 0.345 µg/mL | 0.691
first compound 0.0625 µg/mL, partner 0.69 µg/mL | 0.371
first compound 0.07 µg/mL, partner 0.2 µg/mL | 0.139
first compound 0.07 µg/mL, partner 0.4 µg/mL | 0.134
first compound 0.07 µg/mL, partner 0.8 µg/mL | 0.0857
first compound 0.125 µg/mL, partner 0.1725 µg/mL | 0.486
first compound 0.125 µg/mL, partner 0.345 µg/mL | 0.463
first compound 0.125 µg/mL, partner 0.69 µg/mL | 0.349
first compound 0.14 µg/mL, partner 0.2 µg/mL | 0.0726
first compound 0.14 µg/mL, partner 0.4 µg/mL | 0.0532
first compound 0.14 µg/mL, partner 0.8 µg/mL | 0.063
first compound 0.25 µg/mL, partner 0.69 µg/mL | 0.242
first compound 0.28 µg/mL, partner 0.2 µg/mL | 0.0574
first compound 0.28 µg/mL, partner 0.4 µg/mL | 0.0463
first compound 0.28 µg/mL, partner 0.8 µg/mL | 0.0433

COc1c(N2C[C@@H]3CCCN[C@@H]3C2)c(F)cc2c(=O)c(C(=O)O)cn(C3CC3)c12 [Moxifloxacin] + O=C1CN(/N=C/c2ccc([N+](=O)[O-])o2)C(=O)N1 [Nitrofurantoin]
Settings | Bliss interaction score
B. subtilis 168 | 0.0132
S. aureus DSM 20231 | 0.0448
S. aureus Newman | -0.0496
S. pneumoniae D39V [1] | 0.0837

fitness, S. pneumoniae D39V [2]
Settings | first compound 0.0037 µg/mL | first compound 0.005 µg/mL | first compound 0.0075 µg/mL | first compound 0.01 µg/mL | first compound 0.015 µg/mL | first compound 0.02 µg/mL
partner 1.285 µg/mL | 0.969 | – | 0.914 | – | 0.884 | –
partner 2 µg/mL | – | 0.972 | – | 0.961 | – | 0.893
partner 2.57 µg/mL | 0.906 | – | 0.903 | – | 0.912 | –
partner 4 µg/mL | – | 0.949 | – | 0.949 | – | 0.879
partner 8 µg/mL | – | 0.836 | – | 0.872 | – | 0.81

S. pneumoniae D39V [2], partner 5.14 µg/mL, one replicate
Settings | fitness
first compound 0.0037 µg/mL | 0.797
first compound 0.0075 µg/mL | 0.748
first compound 0.015 µg/mL | 0.78

C[C@@H](O)[C@H]1C(=O)N2C(C(=O)O)=C(SCCNC=N)C[C@H]12 [Imipenem] + C[C@H]1COc2c(N3CCN(C)CC3)c(F)cc3c(=O)c(C(=O)O)cn1c23 [Levofloxacin]
Settings | Bliss interaction score
B. subtilis 168 | -0.17
S. aureus DSM 20231 | 0.025
S. aureus Newman | 0.0287
S. pneumoniae D39V [1] | -0.0377

fitness, S. pneumoniae D39V [2]
Settings | first compound 0.005 µg/mL | first compound 0.0065 µg/mL | first compound 0.01 µg/mL | first compound 0.013 µg/mL | first compound 0.02 µg/mL | first compound 0.026 µg/mL
partner 0.1725 µg/mL | 0.958 | – | 0.948 | – | 0.963 | –
partner 0.2 µg/mL | – | 0.886 | – | 0.885 | – | 0.871
partner 0.345 µg/mL | 0.894 | – | 0.877 | – | 0.826 | –
partner 0.4 µg/mL | – | 0.77 | – | 0.778 | – | 0.713
partner 0.69 µg/mL | 0.571 | – | 0.615 | – | 0.576 | –
partner 0.8 µg/mL | – | 0.227 | – | 0.361 | – | 0.329

O=C1CN(/N=C/c2ccc([N+](=O)[O-])o2)C(=O)N1 [Nitrofurantoin] + CN(N=O)C(=O)N[C@@H](C=O)[C@@H](O)[C@H](O)[C@H](O)CO [Streptozotocin]
Settings | Bliss interaction score
B. subtilis 168 | 0.0585
S. aureus DSM 20231 | -0.034
S. aureus Newman | 0.0906
S. pneumoniae D39V [1] | 0.0714

fitness, S. pneumoniae D39V [2]
Settings | partner 1.2 µg/mL | partner 2.4 µg/mL | partner 4.8 µg/mL
first compound 1.285 µg/mL | 0.928 | 0.94 | 0.939
first compound 2.57 µg/mL | 0.939 | 0.952 | 0.957

fitness, S. pneumoniae D39V [2], one replicate
Settings | first compound 2 µg/mL | first compound 4 µg/mL | first compound 5.14 µg/mL | first compound 8 µg/mL
partner 1.2 µg/mL | 0.954 | 0.959 | 0.86 | 0.818
partner 2.4 µg/mL | 0.961 | ≥ 1 | 0.919 | 0.842
partner 4.8 µg/mL | ≥ 1 | ≥ 1 | 0.871 | ≥ 1

CC[C@H]1OC(=O)[C@H](C)[C@@H](O[C@H]2C[C@@](C)(OC)[C@@H](O)[C@H](C)O2)[C@H](C)[C@@H](O[C@@H]2O[C@H](C)C[C@H](N(C)C)[C@H]2O)[C@](C)(OC)C[C@@H](C)C(=O)[C@H](C)[C@@H](O)[C@]1(C)O [Clarithromycin] + COc1c(N2C[C@@H]3CCCN[C@@H]3C2)c(F)cc2c(=O)c(C(=O)O)cn(C3CC3)c12 [Moxifloxacin]
Settings | Bliss interaction score
B. subtilis 168 | 0.0403
S. aureus DSM 20231 | 0.0891
S. aureus Newman | 0.123
S. pneumoniae D39V [1] | 0.0742

fitness, S. pneumoniae D39V [2], one replicate
Settings | first compound 0.007812 µg/mL | first compound 0.01562 µg/mL | first compound 0.03125 µg/mL
partner 0.0037 µg/mL | 0.834 | 0.823 | 0.648
partner 0.0075 µg/mL | 0.85 | 0.82 | 0.6
partner 0.015 µg/mL | 0.818 | 0.765 | 0.572

fitness, S. pneumoniae D39V [2]
Settings | partner 0.005 µg/mL | partner 0.01 µg/mL | partner 0.02 µg/mL | partner 0.0312 µg/mL | partner 0.0625 µg/mL | partner 0.125 µg/mL
first compound 0.0625 µg/mL | 0.716 | 0.748 | 0.717 | – | – | –
first compound 0.07 µg/mL | – | – | – | 0.056 | 0.0339 | 0.0389
first compound 0.14 µg/mL | – | – | – | 0.0451 | 0.0439 | 0.0343
first compound 0.25 µg/mL | 0.217 | 0.235 | 0.238 | – | – | –
first compound 0.28 µg/mL | – | – | – | 0.0421 | 0.0312 | 0.0325

CCC[C@@H]1C[C@@H](C(=O)N[C@@H]([C@H]2O[C@H](SC)[C@H](O)[C@@H](O)[C@H]2O)[C@H](C)Cl)N(C)C1 [Clindamycin] + CO[C@H]1/C=C/O[C@@]2(C)Oc3c(C)c(O)c4c(O)c(c(/C=N/N5CCN(C)CC5)c(O)c4c3C2=O)NC(=O)/C(C)=C\C=C\[C@H](C)[C@H](O)[C@@H](C)[C@@H](O)[C@@H](C)[C@H](OC(C)=O)[C@@H]1C [Rifampicin]
Settings | Bliss interaction score
B. subtilis 168 | -0.223
S. aureus DSM 20231 | 0.027
S. aureus Newman | 0.0465
S. pneumoniae D39V [1] | -0.077

fitness, S. pneumoniae D39V [2]
Settings | first compound 0.0125 µg/mL | first compound 0.015 µg/mL | first compound 0.025 µg/mL | first compound 0.03 µg/mL | first compound 0.05 µg/mL | first compound 0.06 µg/mL
partner 0.025 µg/mL | 0.795 | – | 0.539 | – | 0.273 | –
partner 0.05 µg/mL | 0.811 | – | 0.523 | – | 0.215 | 0.226
partner 0.1 µg/mL | 0.341 | 0.267 | 0.223 | 0.212 | 0.15 | 0.164

fitness, S. pneumoniae D39V [2], one replicate
Settings | first compound 0.015 µg/mL | first compound 0.03 µg/mL | first compound 0.06 µg/mL
partner 0.025 µg/mL | 0.702 | 0.496 | 0.229
partner 0.2 µg/mL | 0 | 0 | 0

CC[C@H]1OC(=O)[C@H](C)[C@@H](O[C@H]2C[C@@](C)(OC)[C@@H](O)[C@H](C)O2)[C@H](C)[C@@H](O[C@@H]2O[C@H](C)C[C@H](N(C)C)[C@H]2O)[C@](C)(OC)C[C@@H](C)C(=O)[C@H](C)[C@@H](O)[C@]1(C)O [Clarithromycin] + C[C@@H]1O[C@@H]1P(=O)(O)O [Fosfomycin]
Settings | Bliss interaction score
B. subtilis 168 | 0.0504
S. aureus DSM 20231 | -0.0843
S. aureus Newman | -0.114
S. pneumoniae D39V [1] | 0.0544

fitness, S. pneumoniae D39V [2], one replicate
Settings | first compound 0.007812 µg/mL | first compound 0.01562 µg/mL | first compound 0.03125 µg/mL
partner 1.25 µg/mL | 0.863 | 0.828 | 0.641
partner 2.5 µg/mL | 0.775 | 0.804 | 0.634
partner 5 µg/mL | 0.669 | 0.63 | 0.559

fitness, S. pneumoniae D39V [2]
Settings | first compound 0.0625 µg/mL | first compound 0.07 µg/mL | first compound 0.125 µg/mL | first compound 0.14 µg/mL | first compound 0.25 µg/mL | first compound 0.28 µg/mL
partner 1.25 µg/mL | 0.543 | 0.171 | 0.332 | 0.088 | 0.139 | 0.102
partner 2.5 µg/mL | 0.538 | 0.102 | 0.323 | 0.0599 | 0.13 | 0.0306
partner 5 µg/mL | 0.485 | 0.0461 | 0.288 | 0.057 | 0.132 | 0.0557

— the supplement of paper PMC10627819
